Assay results as given in patent US20120029187A1, “HALOALKYLSULFONANILIDE DERIVATIVE” (Nissan Chemical Industries, Ltd., priority 2009, published 2012).

Columns and labels:
Type in all cases: in vivo
[1] = system: bulrush; assay: Test Example 1: herbicidal effects in preemergence treatment under submerged conditions; conditions: dose 2.52 g/a
In short: (§1)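 Flooded-paddy preemergence assay; EC diluted with water, surface-applied at weed seeding; doses g/a; rice transplanted at 2.5 leaves; 0–5 mortality score after 3 weeks.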

[2] = system: ducksalad; assay: as above; conditions: dose 2.52 g/a
In short: as §1

[3] = system: barnyardgrass; assay: as above; conditions: dose 2.52 g/a
In short: as §1

[4] = system: bulrush; assay: Test Example 2: herbicidal effects during the vegetation period under submerged conditions; conditions: treatment during the vegetation period under submerged conditions; dose 2.52 g/a
In short: (§2)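 Barnyardgrass, bulrush and ducksalad were co-sown in alluvial soil flooded to 4 cm and grown in a greenhouse at 25 to 30° C. At the 1- or 2-leaf stage, water-diluted emulsifiable concentrates went onto the water surface at set doses (g/a). Herbicidal effect was scored three weeks later on a graded scale.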

[5] = system: ducksalad; assay: as above; conditions: treatment during the vegetation period under submerged conditions; dose 2.52 g/a
In short: as §2

[6] = system: barnyardgrass; assay: as above; conditions: treatment during the vegetation period under submerged conditions; dose 2.52 g/a
In short: as §2

[7] = system: transplanted rice; assay: Test Example 1: preemergence treatment under submerged conditions, effect on crop; conditions: dose 2.52 g/a
In short: as §1

[8] = system: giant foxtail; assay: Test Example 4: herbicidal effect in foliage treatment; conditions: three weeks after application
In short: (§3)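 Sowing in sterilized diluvial soil, ~1.5 cm cover; growth 14 d, 25–30° C greenhouse; foliar spray of water-diluted EC at predetermined g/a; scoring 3 wk later on graded scale.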

[9] = system: posumbu knotweed; assay: as above; conditions: three weeks after application
In short: as §3

[10] = system: common lambsquater; assay: as above; conditions: three weeks after application
In short: as §3

[11] = system: redroot pigweed; assay: as above; conditions: three weeks after application
In short: as §3

[12] = system: common chickweed; assay: as above; conditions: three weeks after application
In short: as §3

[13] = system: velvetleaf; assay: as above; conditions: three weeks after application
In short: as §3

[14] = system: beadstraw; assay: as above; conditions: three weeks after application
In short: as §3

[15] = system: water foxtail; assay: as above; conditions: three weeks after application
In short: as §3

[16] = system: common ragweed; assay: as above; conditions: three weeks after application
In short: as §3

[17] = system: wild oat; assay: as above; conditions: three weeks after application
In short: as §3

[18] = system: Italian ryegrass; assay: as above; conditions: three weeks after application
In short: as §3

[19] = system: barnyardgrass; assay: as above; conditions: three weeks after application
In short: as §3

[20] = system: large crabgrass; assay: as above; conditions: three weeks after application
In short: as §3

[21] = system: giant foxtail; assay: Test Example 3: herbicidal effects in soil treatment
In short: (§4)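 Seeds were sown in sterilized diluvial soil and covered with about 1.5 cm of soil. Compounds, formulated as emulsifiable concentrates and diluted with water, were sprayed evenly over the soil surface at set doses in g/a. Herbicidal effect was scored on a rating scale three weeks later.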

[22] = system: posumbu knotweed; assay: as above
In short: as §4

[23] = system: common lambsquater; assay: as above
In short: as §4

[24] = system: redroot pigweed; assay: as above
In short: as §4

[25] = system: common chickweed; assay: as above
In short: as §4

[26] = system: water foxtail; assay: as above
In short: as §4

[27] = system: common ragweed; assay: as above
In short: as §4

[28] = system: wild oat; assay: as above
In short: as §4

[29] = system: Italian ryegrass; assay: as above
In short: as §4

[30] = system: barnyardgrass; assay: as above
In short: as §4

[31] = system: large crabgrass; assay: as above
In short: as §4

[32] = system: velvetleaf; assay: as above; conditions: dose 6.3 g/a
In short: as §4

CC(C)(C)COC(=O)N(c1ccccc1CN1COC(C)(C)CC1=O)S(=O)(=O)C(F)(F)F [II-27]
B: bulrush, herbicidal effect (evaluation scale 0-5) [1]: 5 (mortality of 90% or above (nearly complete death))
C: ducksalad, herbicidal effect (evaluation scale 0-5) [2]: 5 (mortality of 90% or above (nearly complete death))
A: barnyardgrass, herbicidal effect (evaluation scale 0-5) [3]: 5 (mortality of 90% or above (nearly complete death))
B: bulrush, herbicidal effect (evaluation scale 0-5) [4]: 5 (mortality of 90% or above (nearly complete death))
C: ducksalad, herbicidal effect (evaluation scale 0-5) [5]: 5 (mortality of 90% or above (nearly complete death))
A: barnyardgrass, herbicidal effect (evaluation scale 0-5) [6]: 5 (mortality of 90% or above (nearly complete death))
a: transplanted rice, effect on crop (evaluation scale 0-5) [7]: 0 (mortality of less than 5% (almost ineffective))
E: giant foxtail, herbicidal effect ([8]; dose 3.2 g/a): 3 (mortality of at least 40% and less than 70%)
M: posumbu knotweed, herbicidal effect ([9]; dose 3.2 g/a): 3 (mortality of at least 40% and less than 70%)
L: common lambsquater, herbicidal effect ([10]; dose 3.2 g/a): 3 (mortality of at least 40% and less than 70%)
K: redroot pigweed, herbicidal effect ([11]; dose 3.2 g/a): 0 (mortality of less than 5% (almost ineffective))
N: common chickweed, herbicidal effect ([12]; dose 3.2 g/a): 3 (mortality of at least 40% and less than 70%)
I: velvetleaf, herbicidal effect ([13]; dose 3.2 g/a): 5 (mortality of 90% or above (nearly complete death))
O: beadstraw, herbicidal effect ([14]; dose 3.2 g/a): 4 (mortality of at least 70% and less than 90%)
G: water foxtail, herbicidal effect ([15]; dose 3.2 g/a): 3 (mortality of at least 40% and less than 70%)
J: common ragweed, herbicidal effect ([16]; dose 3.2 g/a): 4 (mortality of at least 70% and less than 90%)
F: wild oat, herbicidal effect ([17]; dose 3.2 g/a): 0 (mortality of less than 5% (almost ineffective))
H: Italian ryegrass, herbicidal effect ([18]; dose 3.2 g/a): 3 (mortality of at least 40% and less than 70%)
A: barnyardgrass, herbicidal effect ([19]; dose 3.2 g/a): 5 (mortality of 90% or above (nearly complete death))
D: large crabgrass, herbicidal effect ([20]; dose 3.2 g/a): 4 (mortality of at least 70% and less than 90%)
E: giant foxtail, herbicidal effect (evaluation scale 0-5) ([21]; dose 3.2 g/a): 4 (mortality of at least 70% and less than 90%)
M: posumbu knotweed, herbicidal effect (evaluation scale 0-5) ([22]; dose 3.2 g/a): 3 (mortality of at least 40% and less than 70%)
L: common lambsquater, herbicidal effect (evaluation scale 0-5) ([23]; dose 3.2 g/a): 0 (mortality of less than 5% (almost ineffective))
K: redroot pigweed, herbicidal effect (evaluation scale 0-5) ([24]; dose 3.2 g/a): 0 (mortality of less than 5% (almost ineffective))
N: common chickweed, herbicidal effect (evaluation scale 0-5) ([25]; dose 3.2 g/a): 4 (mortality of at least 70% and less than 90%)
G: water foxtail, herbicidal effect (evaluation scale 0-5) ([26]; dose 3.2 g/a): 5 (mortality of 90% or above (nearly complete death))
J: common ragweed, herbicidal effect (evaluation scale 0-5) ([27]; dose 3.2 g/a): 4 (mortality of at least 70% and less than 90%)
F: wild oat, herbicidal effect (evaluation scale 0-5) ([28]; dose 3.2 g/a): 0 (mortality of less than 5% (almost ineffective))
H: Italian ryegrass, herbicidal effect (evaluation scale 0-5) ([29]; dose 3.2 g/a): 3 (mortality of at least 40% and less than 70%)
A: barnyardgrass, herbicidal effect (evaluation scale 0-5) ([30]; dose 3.2 g/a): 5 (mortality of 90% or above (nearly complete death))
D: large crabgrass, herbicidal effect (evaluation scale 0-5) ([31]; dose 3.2 g/a): 5 (mortality of 90% or above (nearly complete death))

O=C1CSCCN1Cc1ccccc1NS(=O)(=O)C(F)(F)F [Compound I-17, 4-(2-trifluoromethanesulfonylaminobenzyl)-1,4-thiazinan-3-one]
B: bulrush, herbicidal effect (evaluation scale 0-5) [1]: 5 (mortality of 90% or above (nearly complete death))
C: ducksalad, herbicidal effect (evaluation scale 0-5) [2]: 5 (mortality of 90% or above (nearly complete death))
A: barnyardgrass, herbicidal effect (evaluation scale 0-5) [3]: 4 (mortality of at least 70% and less than 90%)
B: bulrush, herbicidal effect (evaluation scale 0-5) [4]: 5 (mortality of 90% or above (nearly complete death))
C: ducksalad, herbicidal effect (evaluation scale 0-5) [5]: 4 (mortality of at least 70% and less than 90%)
E: giant foxtail, herbicidal effect ([8]; dose 6.3 g/a): 3 (mortality of at least 40% and less than 70%)
M: posumbu knotweed, herbicidal effect ([9]; dose 6.3 g/a): 3 (mortality of at least 40% and less than 70%)
L: common lambsquater, herbicidal effect ([10]; dose 6.3 g/a): 5 (mortality of 90% or above (nearly complete death))
K: redroot pigweed, herbicidal effect ([11]; dose 6.3 g/a): 4 (mortality of at least 70% and less than 90%)
N: common chickweed, herbicidal effect ([12]; dose 6.3 g/a): 4 (mortality of at least 70% and less than 90%)
I: velvetleaf, herbicidal effect ([13]; dose 6.3 g/a): 4 (mortality of at least 70% and less than 90%)
O: beadstraw, herbicidal effect ([14]; dose 6.3 g/a): 5 (mortality of 90% or above (nearly complete death))
G: water foxtail, herbicidal effect ([15]; dose 6.3 g/a): 5 (mortality of 90% or above (nearly complete death))
J: common ragweed, herbicidal effect ([16]; dose 6.3 g/a): 4 (mortality of at least 70% and less than 90%)
F: wild oat, herbicidal effect ([17]; dose 6.3 g/a): 1 (mortality of at least 5% and less than 20%)
H: Italian ryegrass, herbicidal effect ([18]; dose 6.3 g/a): 3 (mortality of at least 40% and less than 70%)
A: barnyardgrass, herbicidal effect ([19]; dose 6.3 g/a): 4 (mortality of at least 70% and less than 90%)
D: large crabgrass, herbicidal effect ([20]; dose 6.3 g/a): 5 (mortality of 90% or above (nearly complete death))
E: giant foxtail, herbicidal effect (evaluation scale 0-5) ([21]; dose 6.3 g/a): 3 (mortality of at least 40% and less than 70%)
M: posumbu knotweed, herbicidal effect (evaluation scale 0-5) ([22]; dose 6.3 g/a): 2 (mortality of at least 20% and less than 40%)
L: common lambsquater, herbicidal effect (evaluation scale 0-5) ([23]; dose 6.3 g/a): 5 (mortality of 90% or above (nearly complete death))
K: redroot pigweed, herbicidal effect (evaluation scale 0-5) ([24]; dose 6.3 g/a): 3 (mortality of at least 40% and less than 70%)
N: common chickweed, herbicidal effect (evaluation scale 0-5) ([25]; dose 6.3 g/a): 5 (mortality of 90% or above (nearly complete death))
I: velvetleaf, herbicidal effect (evaluation scale 0-5) [32]: 1 (mortality of at least 5% and less than 20%)
G: water foxtail, herbicidal effect (evaluation scale 0-5) ([26]; dose 6.3 g/a): 5 (mortality of 90% or above (nearly complete death))
J: common ragweed, herbicidal effect (evaluation scale 0-5) ([27]; dose 6.3 g/a): 4 (mortality of at least 70% and less than 90%)
F: wild oat, herbicidal effect (evaluation scale 0-5) ([28]; dose 6.3 g/a): 0 (mortality of less than 5% (almost ineffective))
H: Italian ryegrass, herbicidal effect (evaluation scale 0-5) ([29]; dose 6.3 g/a): 3 (mortality of at least 40% and less than 70%)
A: barnyardgrass, herbicidal effect (evaluation scale 0-5) ([30]; dose 6.3 g/a): 5 (mortality of 90% or above (nearly complete death))
D: large crabgrass, herbicidal effect (evaluation scale 0-5) ([31]; dose 6.3 g/a): 5 (mortality of 90% or above (nearly complete death))
